The nature of this test: In vitro MRI relaxivity of gold/Gd nanoparticles and clinical contrast agents. The source says:
In vitro MRI of Gadolinium Nanoparticles and Polymer Modified Gadolinium Nanoparticles. In order to provide information about the clinical imaging viability of the polymer modified gold/Gd nanoparticles as a positive contrast agent, in vitro MRI was employed to determine relaxation properties of the unmodified and polymer modified gold/Gd nanoparticles. Table 1 compares the MRI longitudinal and transverse relaxivities, r1 and r2, respectively, of PNIPAM-modified gold/Gd nanoparticles and gold/Gd unmodified nanoparticles to the clinically employed contrasts agents, gadopentetate dimeglumine (Magnevist®) and gadobenate dimeglumine (Multihance®). […] By taking advantage of these properties, novel theragnostic polymer-modified gold/Gd nanoparticles could be produced and exploited as contrast agents for conventional T1 MR imaging.

In turn, `CNC[C@H](O)[C@@H](O)[C@H](O)[C@H](O)CO.CNC[C@H](O)[C@@H](O)[C@H](O)[C@H](O)CO.O=C([O-])CN(CCN(CC(=O)[O-])CC(=O)O)CCN(CC(=O)O)C(COCc1ccccc1)C(=O)[O-].[Gd+3]` (centres unmarked) [Multihance ®, gadobenate dimeglumine] showed a r1 (MRI longitudinal relaxivity) of 17.7 mM⁻¹ s⁻¹.

Compound `CNC[C@H](O)[C@@H](O)[C@H](O)[C@H](O)CO.CNC[C@H](O)[C@@H](O)[C@H](O)[C@H](O)CO.O=C([O-])CN(CCN(CC(=O)[O-])CC(=O)O)CCN(CC(=O)[O-])CC(=O)O.[Gd+3]` [Magnevist ®, gadopentetate dimeglumine] showed a r1 (MRI longitudinal relaxivity) of 6.95 mM⁻¹ s⁻¹.

For the origin of these results see US20150250902A1, “pH-RESPONSIVE GADOLINIUM NANOPARTICLE CONJUGATES AND USES THEREOF” (Colorado School of Mines, priority 2014, published 2015).
